Assay results reported in patent US20240082260A1, “INHIBITOR OF PROTEIN KINASE D FOR USE IN PREVENTION OR TREATMENT OF HYPERLIPIDEMIA” (priority 2021, published 2024).

Assays:
Caco2 cells = assay: Lipid transport (14C-fatty acid release) through Caco2 monolayer in transwell system; assay type: cell-based, human; details: 20 μM, 24 h, vs DMSO; FIG. 8
Method: Lipid transport studies were assessed in Caco2 cells seeded in trans-wells. 1.5×10^5 cells were seeded into a 12-well cell culture insert of 1 μm pore size Trans-well and maintained in for 14 consecutive days with media change every two days. For the lipids uptake and release, the apical side of the membrane was loaded with radioactive ^14C-palmitic acid (0.2 μCi), oleic acid (1 mM), and taurocholic acid (2 mM) in DMEM high glucose 10% FBS. The basal medium contained DMEM high glucose 0.1% FBS. After 24 hours of incubation, cell lysates and the apical and basolateral medium was collected and the ^14C-palmitic acid was measured in a scintillation counter for aliquots of apical and basal medium and for cell lysate. The same protocol was used in Caco2 cells that were treated with CRT0066101 (3 and 5 μM) for 24 h (added together with the mentioned radioactive fatty acid cocktail).
In order to test the potential of PKD inhibitors to restrict lipid transport via epithelial monolayer, we employed Caco2 cells seeded into the Transwells system. Briefly, we plated 1.5×10^5 cells seeded into a 12-well cell culture inserts of 1-μm pore size Transwell and maintained in for 14 consecutive days with media change every 2 days. For the lipid uptake and release, the apical side of the membrane was loaded with radioactive 14C-palmitic acid (0.2 μCi), oleic acid (1 mM), and taurocholic acid (2 mM) in DMEM high glucose 10% FBS. The basal medium contained DMEM high glucose 0.1% FBS. After 24 h of incubation, cell lysates and the apical and basolateral medium were collected and the 14C-palmitic acid was measured in a scintillation counter for aliquots of apical and basal medium and for cell lysate. To assess the efficiency of different PKD inhibitors, Caco2 cells were treated with either CRT0066101 (5 μM), CID2011756 (20 μM), CID755673 (20 μM), 1-NM-PP1 (20 μM), or control solvent solution (DMSO) for 24 h (added together with the mentioned radioactive FA cocktail).

male C57BL/6 mice on HFD = assay: Oral PKD inhibitor in HFD-fed C57BL/6 mice (diet-induced obesity and diabetes); assay type: in vivo, mouse; details: oral administration, mice; also said to prevent hyperlipidemia and diabetes and improve microflora
Method: Mice body weight development was closely monitored and reported here on a weekly basis when mice were on a specified diet. All experiments were performed in male mice.
PKD inhibitor CRT0066101 was dissolved in water (10 mg/kg) and administered orally to the mice by daily gavage, while the control mice were gavaged with water. Mice were maintained on the specified diets and had ab libitum access to food and water. C57BL/6 mice were administered CRT inhibitor treatment at 4-weeks of age, while for the rescue experiment, inhibitor was given under the same circumstances but treatment started only after 7 weeks of HFD feeding. Intestinal barrier permeability was further assessed 1 hour after oral gavage of FITC-Dextran 4.
Energy expenditure, food intake, and activity measurements were obtained in a PhenoMaster (TSE Systems) as previously described (El-Merahbi, Viera et al., 2020, Trujillo Viera, El-Merahbi et al., 2016). Briefly, mice were kept in separate metabolic cages with unlimited access to water and to the specified diet. After 48 hours of acclimation, data was collected every 10 min including photobeam breaks, oxygen consumption, carbon dioxide dissipation, and food and water consumption. Results in bars represent the average of each night/day cycle.
A glucose tolerance test (GTT) was performed after overnight fasting. Mice blood glucose was assessed before and 15, 30, 60, 90, and 120 minutes after intraperitoneal injection of glucose (2 g/kg). For the Insulin tolerance test (ITT), the same measurements were performed after 4 hours of fasting and intraperitoneal injection of 0.5 U/kg of recombinant insulin. For glucose measurements, one blood drop was drawn from the tail tip into a test strip and measured with a glucometer (Accu-Chek® Roche).
Lipids tolerance test was performed as described previously (Wang, Rong et al., 2016b). Briefly, overnight fasted mice were gavaged with olive oil (10 μL/g body weight). Blood was collected at indicated times for measurement of serum triglycerides content. For lipids absorption under tyloxapol treatment, 250 μg/g of body weight were i.p. injected to mice 30 minutes before the gavage of olive oil 5 μL/g body weight.
Liver triglycerides were measured by homogenization of 50 mg of liver in 500 uL of lysis buffer and lipids extraction in methanol:chloroform, phase extraction and evaporation. The lipids were redissolved in DMSO and triglycerides quantified with the mentioned kit and according to the manufacturers' instructions.
The bedding of single-caged mice was collected and the ingested food ingestion from the individual mice was assessed. All the stools were manually collected. After overnight dissecation at 60° C., the samples were weighted and frozen for further analysis. The amount of feces produced per mouse was compared to the amount of food consumed and the weight gain. About 3 g of dried feces material were homogenized and 1 g was pressed into a tablet and accurately weighted. Calorie content from feces and diet was measured in duplicates in a 6400 Automatic Isoperibol calorimeter (Parr Instrument Company). To analyze energy excreted, the amount of energy in feces was compared to the amount of energy ingested (the product between grams of food and caloric content of the food). Lipids extraction from feces was performed as previously described (Kraus, Yang et al., 2015).
Proteins from tissues and cell culture were extracted with RIPA buffer supplemented with phosphatase and protease inhibitor (PPI, Thermo Fisher Scientific). Protein concentration was measured by Pierce™ BCA Protein Assay Kit (Thermo Fisher Scientific) following the manufacturer's protocol. Reduced protein extracts were separated on 10% SDS-PAGE gels by electrophoresis and transferred to PVDF membranes under wet transfer. Membranes were blocked in 5% (w/v) milk in TBS-T before overnight probing with indicated primary antibodies at 4° C., followed by TBS-T washes and incubation with corresponding secondary antibody.

LDLR-deficient mice = details: cited from earlier work

Row | lipid transport through the Caco2 monolayer (Caco2 cells) | SMILES | obesity induced by a high-fat diet (summary statement) (male C57BL/6 mice on HFD) | course of atherosclerosis (LDLR-deficient mice)
1 | significant reduction in lipid transport | O=C(Nc1ccc(CN2CCOCC2)cc1)c1ccc(-c2cccc(Cl)c2)o1 [CID2011756] |  | 
2 |  | CC(C)c1c(C(=O)Nc2ccccc2)c(-c2ccccc2)c(-c2ccc(F)cc2)n1CC[C@@H](O)C[C@@H](O)CC(=O)O [Atorvastatin] |  | efficiently attenuating the course of atherosclerosis
3 | significant reduction in lipid transport | CC(C)(C)n1nc(Cc2cccc3ccccc23)c2c(N)ncnc21 [1-NM-PP1, 1-(tert-butyl)-3-(nafthalen-1-ylmethyl)-1H-pirazol[3,4-d]pyrimidine-4-amine] |  | 

Row | SMILES | lipid transport through the Caco2 monolayer (Caco2 cells) | obesity induced by a high-fat diet (summary statement) (male C57BL/6 mice on HFD) | course of atherosclerosis (LDLR-deficient mice)
4 | O=C1NCCCc2c1oc1ccc(O)cc21 [CID755673] | significant reduction in lipid transport | significantly reduces obesity induced by a high-fat diet | 
